Among the data in ChEMBL document CHEMBL5120898, “Bathiapeptides: Polythiazole-Containing Peptides from a Marine Biofilm-Derived Bacillus sp” (J Nat Prod, 2022) are IC50 values, retold here.

Where only a bound is given, the exact number is not on record here.

Holding throughout (format): functional, cell-based
One experiment relates to HepG2. Nature of the experiment: Cytotoxicity against human HepG2 cells assessed as inhibition of cell growth incubated for 24 hrs by MTT assay. Particulars: HepG2, 24 h. (In general: Tetrazolium assays rely on reduction of a dye to a coloured formazan, in cell work by metabolically active cells.)
The subject of the next experiment is HeLa. Nature of the experiment: Cytotoxicity against human HeLa cells assessed as inhibition of cell growth incubated for 24 hrs by MTT assay.
The next experiment concerns MCF7. Nature of the experiment: Cytotoxicity against human MCF7 cells assessed as inhibition of cell growth incubated for 24 hrs by MTT assay. The note with it: MCF7, 24 h.
Another experiment has as its system MGC-803. Nature of the experiment: Cytotoxicity against human MGC-803 cells assessed as inhibition of cell growth incubated for 24 hrs by MTT assay. Particulars: MGC-803, 24 h.

By IC50 is commonly meant the midpoint of a concentration-inhibition curve. `CC[C@H](C)[C@@H]1NC(=O)[C@@H](Cc2ccccc2)NC(=O)c2csc(n2)-c2csc(n2)-c2csc(n2)[C@@H](CO)NC1=O`: the IC50 with HepG2 is above 50 µM; in the experiment on HeLa, 16.3 µM; in the experiment on MCF7, 12.4 µM; in the experiment with MGC-803, 15.7 µM.
The like results for `CC[C@H](C)[C@@H]1NC(=O)[C@@H](Cc2ccccc2)NC(=O)c2csc(n2)-c2csc(n2)-c2csc(n2)[C@H](C)NC1=O` were, in that order, 13.1 µM, 29.6 µM, 10 µM and 16.4 µM.
The like results for `CC[C@H](C)[C@@H]1NC(=O)[C@@H](Cc2ccccc2)NC(=O)c2csc(n2)-c2csc(n2)-c2csc(n2)[C@@H](C)NC1=O` were, in that order, 4.1 µM, 1.5 µM, 0.5 µM and 0.8 µM.
The like results for `CC(C)[C@@H]1NC(=O)[C@@H](Cc2ccccc2)NC(=O)c2csc(n2)-c2csc(n2)-c2csc(n2)[C@@H](C)NC1=O` were, in that order, 5 µM, 8 µM, 3 µM and 2.9 µM.
As to `CC[C@H](C)[C@@H]1NC(=O)[C@@H](Cc2ccccc2)NC(=O)c2csc(n2)-c2csc(n2)-c2csc(n2)CNC1=O`, the half-maximal inhibitory concentration (IC50) with HepG2 amounted to 4.5 µM; in the experiment with HeLa, 4.6 µM; with MCF7 it was 2.4 µM; with MGC-803, 5.8 µM.
The like results for `CC[C@H](C)[C@@H]1NC(=O)[C@@H](Cc2ccccc2)NC(=O)c2csc(n2)-c2csc(n2)[C@@H](C)NC1=O` were, in that order, above 50 µM, above 50 µM, above 50 µM and above 50 µM.
Turning to `CC[C@H](C)[C@H](NC(=O)[C@@H](Cc1ccccc1)NC(C)=O)C(=O)N[C@H](C)c1nc(-c2nc(-c3nc(C(=O)O)cs3)cs2)cs1`, the half-maximal inhibitory concentration (IC50) with HepG2, with HeLa, in the experiment with MCF7 and with MGC-803 was above 50 µM throughout.
As for `CC[C@H](C)[C@H](NC(=O)[C@H](N)Cc1ccccc1)C(=O)N[C@H](C)c1nc(-c2nc(-c3nc(C(=O)O)cs3)cs2)cs1`, the IC50 with HepG2, with HeLa, in the experiment on MCF7 and with MGC-803 was above 50 µM in each case.
